Experimental data as given in patent US20090143418A1, “Compositions and Methods for Preventing and Treating Hair Growth Cycle-Related Conditions” (THE REGENTS OF THE UNIVERSITY OF MICHIGAN, priority 2007, published 2009).
Where “and” joins values, the source holds several entries; their conditions need not be identical. Equal values may be shown once.

Columns and labels:
hirsutism = hirsutism patients; cited from earlier work
DCT-LacZ mice [1] = experiment: DCT-LacZ (X-gal) staining of skin, hair follicles containing melanocyte progenitors; format: in vivo, mouse; conditions: for percentage of hair follicles containing DCT-LacZ+ cells, Average: 11.2 grays irradiation, rapamycin 4 mg/kg/day i.p.; for percentage of hair follicles containing DCT-LacZ+ cells, individual mouse: individual animals (Mouse 1-4), 4 mg/kg/day i.p., 4 mg/kg/day
Protocol: Mice: DCT-LacZ mice were backcrossed for 3 generations on a C57BL background.
Irradiation and Bone Marrow Transplant: Adult recipient mice were irradiated using a gamma cell irradiator. Mice received two doses of 560 rads each delivered 3 hours apart (FIGS. 1-4, FIG. 7, Table 1). Mice received 1,000,000 whole bone marrow cells isolated from a C57BL donor (FIGS. 1-4, FIG. 7, Table 1). Bone marrow cells were suspended in HBSS free with 2% Bovine Serum and injected via the retro orbital venous sinus. Where indicated, mice were sublethally irradiated with 650 rads and not subjected to bone marrow transplant (FIG. 6).
(§1) Rapamycin: Rapamycin (LC Laboratories) was administered by intraperitoneal injection. Rapamycin was reconstituted in ethanol (10 mg/ml or 1 mg/ml) and diluted into a solution of 5% Tween-80 (Sigma) and 5% PEG-400 (Hampton Research). The final volume injected was […]. Dosing and administration regimes were as indicated in Example II.
(§2) DCT-LacZ Staining A 2×2 cm patch of skin was harvested with dissecting scissors from euthanized DCT-LacZ mice. The skin patch was washed in phosphate buffer (0.5M Na2HPO4, 0.5M NaH2PO4, 2 mM MgC12, 0.02% NP-40, 0.01% sodium deoxycolate), and then fixed on ice in 0.2% glutaraldehyde in phosphate buffer for 30 minutes. While being fixed, the skin samples were microwaved in fixation solution on ice for 20 seconds. After fixation, the samples were washed and the adipose layer was removed by dissection. After another washing, the skin samples were stained in 1 mg/ml X-gal in phosphate buffer for 2.5 hours. After staining, samples were washed and roughly 1 mm wide sections were made manually using a razor blade. Sections were mounted in 70% glycerol.
To better understand the effects of rapamycin on melanocyte progenitors, transplantation experiments in mice bearing a DCT-LacZ transgene, which is expressed by melanocyte progenitors in hair follicles, were conducted (see, e.g., Mackenzie, M. A., et al., Dev Biol 192, 99-107 (1997); Nishimura, E. K., et al., Nature 416, 854-60 (2002); each herein incorporated by reference in their entireties). This transgene expresses the bacterial LacZ gene under the control of the melanocyte specific promoter for the gene dopachrome tautomerase. These mice were used as recipients in similar transplants where 1 million whole bone marrow cells were irradiated and transplanted. The mice were treated with 0.4 mg/kg of rapamycin every other day for the first two weeks and then with 4 mg/kg/day after that. These mice were sacrificed at regular intervals, and their skin harvested and stained with X-gal.
Animals were sacrificed at each time point and stained with X-gal. The percentage of hair follicles containing DCT-LacZ+ cells was quantified.

DCT-LacZ mice [2] = experiment: Hair cycle stage (anagen) in skin sections of irradiated, transplanted DCT-LacZ mice; format: in vivo, mouse; conditions: 2/18 rapamycin treated animals versus 56% (10/18) vehicle; P=0.0001
Protocol: as §2
To better understand the effects of rapamycin on melanocyte progenitors, transplantation experiments in mice bearing a DCT-LacZ transgene, which is expressed by melanocyte progenitors in hair follicles, were conducted (see, e.g., Mackenzie, M. A., et al., Dev Biol 192, 99-107 (1997); Nishimura, E. K., et al., Nature 416, 854-60 (2002); each herein incorporated by reference in their entireties). This transgene expresses the bacterial LacZ gene under the control of the melanocyte specific promoter for the gene dopachrome tautomerase. […]

[3] = tested on: wild-type nonirradiated mice; experiment: Depilation-induced hair cycle, skin pigmentation onset; format: in vivo, mouse; conditions: 4 mg/kg starting the day after depilation
Protocol: as §1
Depilation: Mice were anesthetized by intraperitoneal injection of 80 mg/kg of ketamine and 4 mg/kg of […] dissolved in HBSS. Final injection volume was 200 μl. The dorsal hair of the mice was then shaved with conventional clippers, and a commercial depilatory cream (Veet®) was applied liberally to an area of approximately 1.5×1.5 cm. After 5 minutes, the cream was washed off the mouse using warm water, and the mouse was gently dried using paper towels.
In analyzing the frequency of hair follicles that contained X-gal+ melanocytes, it became apparent that the hair follicles of rapamycin treated animals were less frequently in mature stages of the hair cycle (see FIG. 4). […] As such, a region of the lower back of wild-type nonirradiated mice was shaved and depilated. Depilation induced a new hair growth cycle, thereby permitting to test if in this context rapamycin could prevent the onset of or lengthen the duration of the hair cycle. […]

Structure (SMILES)	side effects (hirsutism)	percentage of hair follicles containing DCT-LacZ+ cells, Average (DCT-LacZ mice [1]; Week 8) [%]	percentage of hair follicles containing DCT-LacZ+ cells, individual mouse (DCT-LacZ mice [1]; Week 8)	percentage of hair follicles containing DCT-LacZ+ cells, Average (DCT-LacZ mice [1]; Week 10) [%]	percentage of hair follicles containing DCT-LacZ+ cells, individual mouse (DCT-LacZ mice [1]; Week 10)	percentage of hair follicles containing DCT-LacZ+ cells, Average (DCT-LacZ mice [1]; Week 12) [%]	percentage of hair follicles containing DCT-LacZ+ cells, individual mouse (DCT-LacZ mice [1]; Week 12)	percentage of hair follicles containing DCT-LacZ+ cells, Average (DCT-LacZ mice [1]; Week 14) [%]	percentage of hair follicles containing DCT-LacZ+ cells, individual mouse (DCT-LacZ mice [1]; Week 14)	animals with hairs in anagen (DCT-LacZ mice [2]) [%]	days until pigmentation was visible in skin ([3]; n=5, vehicle 16.7 days, p=0.04) [days]	delay of change in skin color (progression through anagen) versus vehicle ([3]; on average) [days]
NCCCC(N)(C(=O)O)C(F)F (stereo not drawn) [Eflornithine]	minor skin irritation, folliculitis, stinging, burning, tingling, acne, and/or rash											
CO[C@H]1C[C@@H]2CC[C@@H](C)[C@@](O)(O2)C(=O)C(=O)N2CCCC[C@H]2C(=O)O[C@H]([C@H](C)C[C@@H]2CC[C@@H](O)[C@H](OC)C2)CC(=O)[C@H](C)/C=C(\C)[C@@H](O)[C@@H](OC)C(=O)[C@H](C)C[C@H](C)/C=C/C=C/C=C/1C [Rapamycin]		61.0	77.0% and 45.0%	34.1	19.3% and 22.0% and 42.0% and 53.0%	48.3	54.0% and 39.0% and 52.0%	40.5	53.0% and 42.0% and 17.0% and 50.0%	11	25.2	8
